Data set [1] addresses T1, OATP1B1 (Homo sapiens, UniProt Q9Y6L6).
T1 sequence (Q9Y6L6 1-691): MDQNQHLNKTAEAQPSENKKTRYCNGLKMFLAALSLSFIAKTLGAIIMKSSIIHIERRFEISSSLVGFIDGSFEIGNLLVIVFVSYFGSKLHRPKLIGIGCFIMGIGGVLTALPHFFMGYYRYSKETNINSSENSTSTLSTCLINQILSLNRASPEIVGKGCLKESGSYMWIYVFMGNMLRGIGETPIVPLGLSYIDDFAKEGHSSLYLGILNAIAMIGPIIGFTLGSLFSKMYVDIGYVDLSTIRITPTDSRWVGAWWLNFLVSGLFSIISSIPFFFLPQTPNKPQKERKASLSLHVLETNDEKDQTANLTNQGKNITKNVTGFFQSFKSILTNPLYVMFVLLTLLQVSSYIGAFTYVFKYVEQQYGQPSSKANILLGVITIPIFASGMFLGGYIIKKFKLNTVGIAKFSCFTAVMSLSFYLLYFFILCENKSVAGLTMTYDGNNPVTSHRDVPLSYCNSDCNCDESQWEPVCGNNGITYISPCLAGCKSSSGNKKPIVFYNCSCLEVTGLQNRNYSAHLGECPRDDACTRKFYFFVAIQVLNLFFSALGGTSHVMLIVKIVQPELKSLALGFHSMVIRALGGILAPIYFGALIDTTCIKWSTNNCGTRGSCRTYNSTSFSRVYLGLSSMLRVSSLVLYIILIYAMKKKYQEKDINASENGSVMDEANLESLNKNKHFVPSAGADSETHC

Data set [2] concerns primary rat hepatocytes.
Data set [3] has as its target T2, OATP1B3 (Homo sapiens, UniProt Q9NPD5).
In data set [4] the test system is primary rat hepatocytes. The source holds these as a separate data set.
Data set [5] deals with primary rat hepatocytes. This is another data set of the same source.
Data set [6] addresses T2, OATP1B3. The experiment in a line: cell-based.
For data set [7], the target named is T1, OATP1B1. The data set can be described thus: cell-based.
Substrate in data set [8]: O=C1OC2(c3ccc(O)cc3Oc3cc(O)ccc32)c2ccccc21
The experiment in a line: cells, lysate or membranes. The following applies: other: ± s.e. of the estimate.

Where two headings read alike, the source gives them in different places.

T2 sequence (Q9NPD5 whole entry): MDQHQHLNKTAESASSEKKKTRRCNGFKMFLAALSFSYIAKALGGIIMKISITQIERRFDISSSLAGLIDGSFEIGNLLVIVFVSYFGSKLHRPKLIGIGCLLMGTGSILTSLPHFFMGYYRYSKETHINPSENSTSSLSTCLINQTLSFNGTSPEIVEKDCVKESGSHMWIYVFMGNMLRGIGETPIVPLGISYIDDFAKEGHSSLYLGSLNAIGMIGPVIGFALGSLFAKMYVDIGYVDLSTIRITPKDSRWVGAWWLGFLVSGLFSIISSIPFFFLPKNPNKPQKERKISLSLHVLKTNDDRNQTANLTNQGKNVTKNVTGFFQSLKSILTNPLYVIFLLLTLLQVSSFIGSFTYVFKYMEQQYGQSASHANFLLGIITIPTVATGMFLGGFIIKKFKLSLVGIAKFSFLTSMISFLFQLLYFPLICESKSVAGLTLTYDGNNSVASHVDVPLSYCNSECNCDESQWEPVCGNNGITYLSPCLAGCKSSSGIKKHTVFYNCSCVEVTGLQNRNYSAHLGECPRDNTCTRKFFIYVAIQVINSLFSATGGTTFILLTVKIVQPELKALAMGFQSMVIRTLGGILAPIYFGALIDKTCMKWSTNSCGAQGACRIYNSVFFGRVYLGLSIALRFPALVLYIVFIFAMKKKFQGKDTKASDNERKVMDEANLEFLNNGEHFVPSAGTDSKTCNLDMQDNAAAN

For orientation: IC50 means the midpoint of a concentration-inhibition curve. Read a low IC50 as inhibition by little substance. Turning to `Nc1ncnc2c1nc(Br)n2C1OC2COP(O)(=S)OC2C1O` (single isomer, unassigned) [Rp-8-Br-cAMPS, 8-Bromoadenosine-3′, 5′-cyclic monophosphorothioate, Rp-isomer], the IC50 at OATP1B1 [1] and on OATP1B3 [3] was over 300 µM each time. Also, in the data set on primary rat hepatocytes [2] (300 µM, 150 nM Nod), the “Effect on Nod-induced hepatocyte apoptosis (Fig. 1F)” value is recorded as “inhibited apoptotic morphology”.

What is called Ki is the dissociation constant of the complex between target and ligand, obtained from inhibition or displacement. A lower Ki goes with tighter binding. Turning to `CO[C@H]1C2OP(O)(=S)OC[C@H]2O[C@H]1n1c(Sc2ccc(Cl)cc2)nc2c(N)ncnc21` (single isomer, unassigned) [Sp-8-pCPT-2′-O-Me-cAMPS, 8-(4-Chlorophenylthio)-2′-O-methyladenosine-3′, 5′-cyclic monophosphorothioate, Sp- isomer], on OATP1B1 [1], half-maximal inhibition (IC50) was put at 19.9 µM and affinity was put at a Ki of 6.63 µM. In the data set on primary rat hepatocytes [2], the “Effect on Nod-induced hepatocyte apoptosis (Fig. 2A)” value (“Effect … (Fig. 2A)” below) is “clear inhibition”. On OATP1B3 [3], this molecule registered an IC50 of 8.7 µM and a Ki of 2.33 µM. The “Effect on [14C]-glycocholic acid accumulation in hepatocytes” value in the data set with primary rat hepatocytes [4] (50 µM) was “almost completely inhibited”. Also, the “Effect on [3H]-Nod accumulation in hepatocytes” value (from here on “Effect on [3H]-Nod accumulation”) in the data set on primary rat hepatocytes [5] is given as “almost completely inhibited”.

On to `CO[C@@H]1[C@H](O)[C@@H](CO)O[C@H]1n1c(Sc2ccc(Cl)cc2)nc2c(N)ncnc21` [8-pCPT-2′-O-Me-Ado, 8-(4-Chlorophenylthio)-2′-O-methyladenosine], for which, on OATP1B3 [6], 17.2 µM corresponded to half-maximal inhibition (IC50) and affinity was put at a Ki of 4.61 µM. At OATP1B1 [7], this molecule registered an IC50 of 31.3 µM and a Ki of 10.4 µM.

For the molecule `CO[C@@H]1[C@@H]2OP(=O)(OCOC(C)=O)OC[C@H]2O[C@H]1n1c(Sc2ccc(Cl)cc2)nc2c(N)ncnc21` (some centres unmarked) [8-pCPT-2′-O-Me-cAMP-AM, 8-(4-Chlorophenylthio)-2′-O-methyladenosine-3′, 5′-cyclic monophosphate, acetoxymethyl ester], the “Effect on [14C]-glycocholic acid accumulation in hepatocytes” value in the data set on primary rat hepatocytes [4] (50 µM) was “no inhibitory effect”. The “Effect on [3H]-Nod accumulation” value with primary rat hepatocytes [5] was “did not affect”.

`Nc1ncnc2c1ncn2[C@@H]1O[C@H](CO)[C@@H](O)[C@H]1O` [Adenosine, adenosine]: the IC50 against OATP1B3 [6] and on OATP1B1 [7] was over 300 µM each time.

Consider `CCCC(=O)Nc1ncnc2c1ncn2[C@@H]1O[C@@H]2COP(=O)(O)O[C@H]2[C@H]1O` [Analog 6-MB-cAMP, N^6-Monobutyryladenosine-3′, 5′-cyclic monophosphate], for which, on OATP1B1 [1], the “Effect on Nod-induced apoptosis / Nod transport, OATP1B1-transfected HEK293T cells” value is “no inhibitory effect” and the IC50 was over 300 µM. In the data set on primary rat hepatocytes [2], the “Effect on Nod-induced hepatocyte apoptosis (Fig. 1A)” value was “no change in apoptosis induction”. Moreover, on OATP1B3 [3], the “Effect on Nod-induced apoptosis / Nod transport, OATP1B3-transfected HEK293T cells” value was “no inhibitory effect” and the IC50 was over 300 µM. In the data set with primary rat hepatocytes [4] (50 µM), the “[14C]-GCA accumulation rel. to control” value is reported as “about 1.7”. Also, the “[14C]-GCA accumulation rel. to control” value in the data set with primary rat hepatocytes [4] (400 µM) was determined as 1.1.

At OATP1B3 [6], `Nc1ncnc2c1nc(Sc1ccc(Cl)cc1)n2[C@@H]1O[C@H](CO)[C@@H](O)[C@H]1O` [Analog 8-pCPT-Ado, 8-(4-Chlorophenylthio)adenosine] came in with an IC50 of 150 µM and a Ki of 40.2 µM. The molecule further showed an IC50 at OATP1B1 [7] of over 300 µM.

As to `Nc1ncnc2c1nc(Sc1ccc(Cl)cc1)n2[C@@H]1O[C@@H]2COP(=O)([O-])O[C@H]2[C@H]1O.[Na+]` [Analog 8-pCPT-cAMP, 8-(4-Chlorophenylthio)adenosine-3′, 5′-cyclic monophosphate], on OATP1B1 [1], the “Effect on Nod-induced apoptosis / Nod transport, OATP1B1-transfected HEK293T cells” value is reported as “inhibits”; inhibition was half-maximal at 130 µM (IC50); affinity was put at a Ki of 43.3 µM. Besides, in the data set with primary rat hepatocytes [2], the “Effect on Nod-induced hepatocyte apoptosis (Fig. 1A)” value is listed as “inhibited completely apoptotic morphology” and the “Effect … (Fig. 2A)” value was “clear inhibition”. Besides, on OATP1B3 [3], the “Effect on Nod-induced apoptosis / Nod transport, OATP1B3-transfected HEK293T cells” value was “inhibits”; half-maximal inhibition (IC50) was put at 49.6 µM; affinity was put at a Ki of 13.3 µM. Besides, in the data set on primary rat hepatocytes [4], the “[14C]-GCA accumulation compared to control” value turned out to be 60%.

At OATP1B1 [1], `Nc1ncnc2c1nc(Sc1ccc(Cl)cc1)n2C1CC2OP(=O)(O)OCC2O1` (centres unmarked) [Analog 8-pCPT-dcAMP, 8-(4-Chlorophenylthio)adenosine-2′-deoxyadenosine-3′, 5′-cyclic monophosphate] yielded an IC50 of 223 µM and a Ki of 74.7 µM. Further, in the data set on primary rat hepatocytes [2], the “Effect … (Fig. 2A)” value is given as “blocked Nod-induced apoptosis”. In addition, at OATP1B3 [3], the IC50 was 55.7 µM and the affinity corresponds to a Ki of 14.9 µM. Further, in the data set with primary rat hepatocytes [4], the “Effect on [14C]-glycocholic acid accumulation in hepatocytes” value is recorded as “inhibited uptake”.

As to `O=C1OC(c2ccc(O)c(S(=O)(=O)O)c2)(c2ccc(O)c(S(=O)(=O)O)c2)c2c(Br)c(Br)c(Br)c(Br)c21` [BSP, sulfobromophthalein], the “Effect on [14C]-glycocholic acid accumulation in hepatocytes” value in the data set with primary rat hepatocytes [4] (50 µM) is on record as “complete inhibition”. The “Effect on [3H]-Nod accumulation” value in the data set on primary rat hepatocytes [5] is reported as “complete inhibition”.

For `CCCC(=O)Nc1ncnc2c1ncn2[C@@H]1O[C@@H]2COP(=O)(O)O[C@H]2[C@H]1OC(=O)CCC` [DB-cAMP, N^6, 2′-O-Dibutyryladenosine-3′, 5′-cyclic monophosphate], the IC50 against OATP1B3 [6] is 119 µM; at OATP1B1 [7] it was over 300 µM. Also, the “Effect on Nod-induced apoptosis / Nod transport, OATP1B1-transfected HEK293T cells” value at OATP1B1 [1] (human) is “but not to OATP1B1 activity”.

In the case of `Nc1ncnc2c1ncn2C1OC2COP(=O)(O)OC2C1O` (centres unmarked) [cAMP], the IC50 against OATP1B3 [6] and against OATP1B1 [7] was over 300 µM throughout. Further, the “Effect on Nod-induced apoptosis / Nod transport, OATP1B1-transfected HEK293T cells” value at OATP1B1 [1] is “did not affect”. Further, the “Effect on Nod-induced apoptosis / Nod transport, OATP1B3-transfected HEK293T cells” value on OATP1B3 [3] was “did not affect”.

B1: OATP1B1 (Homo sapiens) (protein)
chain: MDQNQHLNKTAEAQPSENKKTRYCNGLKMFLAALSLSFIAKTLGAIIMKSSIIHIERRFEISSSLVGFIDGSFEIGNLLVIVFVSYFGSKLHRPKLIGIGCFIMGIGGVLTALPHFFMGYYRYSKETNINSSENSTSTLSTCLINQILSLNRASPEIVGKGCLKESGSYMWIYVFMGNMLRGIGETPIVPLGLSYIDDFAKEGHSSLYLGILNAIAMIGPIIGFTLGSLFSKMYVDIGYVDLSTIRITPTDSRWVGAWWLNFLVSGLFSIISSIPFFFLPQTPNKPQKERKASLSLHVLETNDEKDQTANLTNQGKNITKNVTGFFQSFKSILTNPLYVMFVLLTLLQVSSYIGAFTYVFKYVEQQYGQPSSKANILLGVITIPIFASGMFLGGYIIKKFKLNTVGIAKFSCFTAVMSLSFYLLYFFILCENKSVAGLTMTYDGNNPVTSHRDVPLSYCNSDCNCDESQWEPVCGNNGITYISPCLAGCKSSSGNKKPIVFYNCSCLEVTGLQNRNYSAHLGECPRDDACTRKFYFFVAIQVLNLFFSALGGTSHVMLIVKIVQPELKSLALGFHSMVIRALGGILAPIYFGALIDTTCIKWSTNNCGTRGSCRTYNSTSFSRVYLGLSSMLRVSSLVLYIILIYAMKKKYQEKDINASENGSVMDEANLESLNKNKHFVPSAGADSETHC
One may read the Km as the concentration of substrate that gives half-maximal velocity. As for B1, in data set [8], the Km was 402 ± 140 µM.

These data come from PMC3989234, “Introduction of Aromatic Ring-Containing Substituents in Cyclic Nucleotides Is Associated with Inhibition of Toxin Uptake by the Hepatocyte Transporters OATP 1B1 and 1B3” (PLoS ONE, 2014).
